{"source": "patent US20220323353A1", "about": "“BIODEGRADABLE DRUG-ELUTING EMBOLIC PARTICLES FOR DELIVERY OF THERAPEUTIC AGENTS” (Becton, Dickinson and Company, priority 2019, published 2022)", "origin": "cited, not measured here", "system": "hepatocellular carcinoma", "details": "administrated via the hepatic artery", "data": [{"smiles": "COc1cccc2c1C(=O)c1c(O)c3c(c(O)c1C2=O)C[C@@](O)(C(=O)CO)C[C@@H]3O[C@H]1C[C@H](N)[C@H](O)[C@H](C)O1", "note": "[doxorubicin]", "values": [{"measurement": "antitumor activity in hepatocellular carcinoma patients", "value": "antitumor effects and partial response"}]}]}
